Measured values from ChEMBL document CHEMBL3603783, “Monoterpene indole alkaloid hydrazone derivatives with apoptosis inducing activity in human HCT116 colon and HepG2 liver carcinoma cells” (2015).
Active and inactive are the calls of the source. The rule behind the calls is not given here.

What was measured:
HCT-116 [1] = assay: Cytotoxicity against human HCT116 cells assessed as reduction in cell viability at 50 uM after 72 hrs by MTS assay relative to control; assay type: functional
HCT-116 [2] = assay: Induction of apoptosis in human HCT116 cells at 5 to 50 uM after 72 hrs by Guava ViaCount flow cytometric analysis; assay type: functional, cell-based
HepG2 [3] = assay: Cytotoxicity against human HepG2 cells assessed as reduction in cell viability at 50 uM after 72 hrs by MTS assay relative to control; assay type: functional
HepG2 [4] = assay: Induction of apoptosis in human HepG2 cells at 5 to 50 uM after 72 hrs by Guava ViaCount flow cytometric analysis; assay type: functional, cell-based
HCT-116 [5] = assay: Induction of apoptosis in human HCT116 cells assessed as change in nuclear morphology at 25 to 50 uM after 24 hrs by Hoechst staining-based fluorescence microscopic analysis; assay type: functional, cell-based
HCT-116 [6] = assay: Cytotoxicity against human HCT116 cells assessed as reduction in cell viability at 5 to 50 uM after 72 hrs by MTS assay; assay type: functional, cell-based
HepG2 [7] = assay: Cytotoxicity against human HepG2 cells assessed as reduction in cell viability at 5 to 50 uM after 72 hrs by MTS assay; assay type: functional, cell-based
HepG2 [8] = assay: Induction of apoptosis in human HepG2 cells assessed as change in nuclear morphology at 25 to 50 uM after 24 hrs by Hoechst staining-based fluorescence microscopic analysis; assay type: functional, cell-based
HCT-116 [9] = assay: Cytotoxicity against human HCT116 cells assessed as reduction in cell viability at 25 uM after 72 hrs by MTS assay relative to control; assay type: functional
HCT-116 [10] = assay: Induction of apoptosis in human HCT116 cells at 50 uM after 72 hrs by Guava ViaCount flow cytometric analysis relative to control; assay type: functional
HepG2 [11] = assay: Induction of apoptosis in human HepG2 cells assessed as increase in caspase-3/7 activity at 25 to 50 uM after 24 hrs by caspase-Glo 3/7 assay; assay type: functional, cell-based
HepG2 [12] = assay: Cytotoxicity against human HepG2 cells assessed as reduction in cell viability at 25 uM after 72 hrs by MTS assay relative to control; assay type: functional
HCT-116 [13] = assay: Induction of apoptosis in human HCT116 cells assessed as increase in caspase-3/7 activity at 25 to 50 uM after 24 hrs by caspase-Glo 3/7 assay; assay type: functional, cell-based
HepG2 [14] = assay: Induction of apoptosis in human HepG2 cells assessed as change in nuclear morphology at 25 uM after 24 hrs by Hoechst staining-based fluorescence microscopic analysis relative to 5-FU; assay type: functional
HepG2 [15] = assay: Induction of apoptosis in human HepG2 cells at 50 uM after 72 hrs by Guava ViaCount flow cytometric analysis relative to control; assay type: functional
HepG2 [16] = assay: Induction of apoptosis in human HepG2 cells assessed as change in nuclear morphology at 25 uM after 24 hrs by Hoechst staining-based fluorescence microscopic analysis relative to vehicle-treated control; assay type: functional
HCT-116 [17] = assay: Induction of apoptosis in human HCT116 cells assessed as change in nuclear morphology at 25 uM after 24 hrs by Hoechst staining-based fluorescence microscopic analysis relative to vehicle-treated control; assay type: functional
HCT-116 [18] = assay: Induction of apoptosis in human HCT116 cells assessed as change in nuclear morphology at 25 uM after 24 hrs by Hoechst staining-based fluorescence microscopic analysis relative to 5-FU; assay type: functional
HepG2 [19] = assay: Induction of apoptosis in human HepG2 cells at 25 uM after 72 hrs by Guava ViaCount flow cytometric analysis relative to control; assay type: functional
HCT-116 [20] = assay: Induction of apoptosis in human HCT116 cells at 25 uM after 72 hrs by Guava ViaCount flow cytometric analysis relative to control; assay type: functional
HCT-116 [21] = assay: Cytotoxicity against human HCT116 cells assessed as reduction in cell viability at 10 uM after 72 hrs by MTS assay relative to control; assay type: functional

CC[C@@H]1CN(C)[C@H]2Cc3c([nH]c4ccccc34)C(=O)C[C@@H]1[C@H]2C(=O)OC
Activity (HCT-116 [1]): inactive | Activity (HCT-116 [2]): inactive | Activity (HepG2 [3]): inactive | Activity (HepG2 [4]): inactive

O=c1[nH]cc(F)c(=O)[nH]1
Activity (HCT-116 [5]): Active | Activity (HCT-116 [6]): Active | Activity (HCT-116 [2]): Active | Activity (HepG2 [4]): Active | Activity (HepG2 [7]): Active | Activity (HepG2 [8]): Active

CC[C@H]1CN(C)[C@H]2Cc3c([nH]c4ccccc34)/C(=N/Nc3ccccc3)C[C@H]1[C@@H]2C(=O)OC
Activity (HCT-116 [1]): inactive | Activity (HepG2 [3]): inactive

CC[C@@H]1CN(C)[C@H]2Cc3c([nH]c4ccccc34)/C(=N/Nc3ccc(Br)cn3)C[C@H]1[C@@H]2C(=O)OC
Activity (HCT-116 [9]): >95% | Activity (HCT-116 [10]): 95% | Activity (HepG2 [11]): Active | Activity (HepG2 [12]): >95% | Activity (HCT-116 [13]): Active | fold change (FC) (HepG2 [14]): 2 | Activity (HepG2 [15]): 95% | fold change (FC) (HepG2 [16]): 4 | fold change (FC) (HCT-116 [17]): 2 | fold change (FC) (HCT-116 [18]): 2

CC[C@@H]1CN(C)[C@H]2Cc3c([nH]c4ccccc34)/C(=N/Nc3ccccc3)C[C@H]1[C@@H]2C(=O)OC
Activity (HepG2 [19]): 90% | Activity (HCT-116 [1]): >95% | Activity (HCT-116 [10]): 95% | Activity (HCT-116 [5]): Active | Activity (HepG2 [11]): Active | Activity (HepG2 [3]): >95% | Activity (HepG2 [12]): 60% | Activity (HCT-116 [13]): Active | Activity (HepG2 [15]): 95% | Activity (HepG2 [8]): Active | Activity (HCT-116 [20]): 35%

CC[C@H]1CN(C)[C@H]2Cc3c([nH]c4ccccc34)C(=O)C[C@H]1[C@@H]2C(=O)OC
Activity (HCT-116 [1]): inactive | Activity (HCT-116 [2]): inactive | Activity (HepG2 [3]): inactive | Activity (HepG2 [4]): inactive

CC[C@H]1CN(C)[C@H]2Cc3c([nH]c4ccccc34)/C(=N/Nc3ccc(Br)cn3)C[C@H]1[C@@H]2C(=O)OC
Activity (HepG2 [19]): 95% | Activity (HCT-116 [9]): >95% | Activity (HepG2 [11]): Active | Activity (HepG2 [12]): >95% | Activity (HCT-116 [13]): Active | fold change (FC) (HepG2 [14]): 2.7 | fold change (FC) (HepG2 [16]): 5.5 | fold change (FC) (HCT-116 [17]): 4 | Activity (HCT-116 [21]): 75% | Activity (HCT-116 [20]): 95% | fold change (FC) (HCT-116 [18]): 4
